Results on 11 molecules are retold here after paper PMC11945486, “TAS1R2/TAS1R3 Single-Nucleotide Polymorphisms Affect Sweet Taste Receptor Activation by Sweeteners: The SWEET Project” (Nutrients, 2025).

No end group written: not given here.

In this assay the target is T1, human TAS1R2-S212G/TAS1R3-WT (Homo sapiens, UniProt Q7RTX0+Q8TE23, S212G).
T1 construct: expressed in transfected cells; host or cells: HEK293T-Gα16gust44
T1 sequence (Q8TE23 20-839 S212G): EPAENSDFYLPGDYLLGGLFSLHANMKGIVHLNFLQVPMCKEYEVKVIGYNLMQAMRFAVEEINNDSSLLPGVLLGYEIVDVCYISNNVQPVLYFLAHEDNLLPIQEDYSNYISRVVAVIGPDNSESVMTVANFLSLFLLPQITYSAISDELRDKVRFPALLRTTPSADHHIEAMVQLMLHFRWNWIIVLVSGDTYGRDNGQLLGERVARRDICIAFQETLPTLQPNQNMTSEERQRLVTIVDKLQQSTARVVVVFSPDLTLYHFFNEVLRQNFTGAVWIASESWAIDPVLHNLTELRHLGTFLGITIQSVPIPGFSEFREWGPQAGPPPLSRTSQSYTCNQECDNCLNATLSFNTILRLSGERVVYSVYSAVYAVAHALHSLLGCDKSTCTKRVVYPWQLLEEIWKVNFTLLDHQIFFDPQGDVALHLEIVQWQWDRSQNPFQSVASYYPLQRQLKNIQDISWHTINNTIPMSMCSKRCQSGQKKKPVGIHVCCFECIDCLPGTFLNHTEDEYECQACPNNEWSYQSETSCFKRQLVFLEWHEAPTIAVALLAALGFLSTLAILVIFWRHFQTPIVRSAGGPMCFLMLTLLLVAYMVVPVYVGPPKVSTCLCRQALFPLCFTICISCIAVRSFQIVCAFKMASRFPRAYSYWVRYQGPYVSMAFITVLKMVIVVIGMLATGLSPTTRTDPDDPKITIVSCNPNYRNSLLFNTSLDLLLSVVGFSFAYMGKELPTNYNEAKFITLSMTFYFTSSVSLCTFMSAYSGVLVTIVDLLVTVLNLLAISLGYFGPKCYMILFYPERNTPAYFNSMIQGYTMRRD
T1 sequence (Q7RTX0 21-852): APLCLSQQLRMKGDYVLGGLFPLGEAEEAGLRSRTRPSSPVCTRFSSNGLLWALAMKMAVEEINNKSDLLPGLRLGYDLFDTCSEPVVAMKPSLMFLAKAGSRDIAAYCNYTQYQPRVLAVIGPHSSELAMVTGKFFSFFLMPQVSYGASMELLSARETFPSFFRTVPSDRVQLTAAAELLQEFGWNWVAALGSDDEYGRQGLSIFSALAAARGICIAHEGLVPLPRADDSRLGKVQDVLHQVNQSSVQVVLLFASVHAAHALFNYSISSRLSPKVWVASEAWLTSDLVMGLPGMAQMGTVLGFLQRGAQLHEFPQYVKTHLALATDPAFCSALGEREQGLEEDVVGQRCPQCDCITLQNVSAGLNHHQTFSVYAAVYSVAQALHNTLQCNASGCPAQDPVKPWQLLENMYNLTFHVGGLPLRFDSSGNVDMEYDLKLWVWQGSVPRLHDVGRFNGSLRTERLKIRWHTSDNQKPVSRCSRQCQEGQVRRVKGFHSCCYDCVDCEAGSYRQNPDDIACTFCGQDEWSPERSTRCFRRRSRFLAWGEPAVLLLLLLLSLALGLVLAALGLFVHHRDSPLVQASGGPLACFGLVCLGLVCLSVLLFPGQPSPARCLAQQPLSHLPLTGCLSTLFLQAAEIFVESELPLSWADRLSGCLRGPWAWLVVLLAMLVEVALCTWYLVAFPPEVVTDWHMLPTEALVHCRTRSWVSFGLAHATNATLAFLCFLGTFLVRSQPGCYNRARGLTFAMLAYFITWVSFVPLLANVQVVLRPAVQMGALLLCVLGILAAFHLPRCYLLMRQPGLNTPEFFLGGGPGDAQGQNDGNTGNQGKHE
As to the kind of experiment: Calcium mobilisation assay, TAS1R2 variant S212G with TAS1R3-WT. The class given is cell-based. Conditions: for Max ΔF/F0: maximal signal amplitude. The source says: The coding sequences for TAS1R2 and TAS1R3 were commercially synthesised, and the human codon was optimised for expression in human cells. The coding sequences of human TAS1R2 and TAS1R3 were subcloned and inserted into the mammalian expression vectors pcDNA6/myc-HisA and pcDNA4/myc-HisA (Invitrogen; Thermo Fisher Scientific; Illkirch, France) between the EcoRI and NotI restriction sites, generating the plasmids pcDNA6-TAS1R2 and pcDNA4-TAS1R3, respectively. To increase protein expression in mammalian cells, an upstream start codon was used, which was a sequence called MAX, corresponding to the QBI SP163 element also described in pcDNA4-HisMax (Invitrogen; Thermo Fisher Scientific; Illkirch, France). To measure the expression level of the receptor by immunohistochemistry, we used the FLAG sequence ([…]) in the C-terminal position, which encodes the FLAG tag epitope. SNP variants of TAS1R2 and TAS1R3 were constructed based on […], respectively, using site-directed mutagenesis (Genewiz; Leipzig, Germany).
The HEK293T cells were kindly provided by Jay P. Slack (Givaudan Flavors Corporation; Cincinnati, OH, USA). HEK293T cells stably transfected with Gα16gust44 [43, 67] were seeded in poly-D-lysine-coated clear-bottom black 96-well plates (0.35 × 10^5 cells/well) in high-glucose DMEM supplemented with 2 mM GlutaMAX, 10% dialysed foetal bovine serum with penicillin/streptomycin and G418 (400 μg/mL) at 37 °C and 6.3% CO2 in a humidified atmosphere as previously reported. […] As a negative control, HEK293T cells were mock-transfected with the empty expression vector. After a further 24 h of incubation, the HEK293T cells were washed with C1 buffer (130 mM NaCl, 5 mM KCl, 10 mM HEPES pH 7.4 and 2 mM CaCl2). The 96-well plates containing the cells were then stimulated with sweet-tasting compounds. […] Different concentration ranges were tested depending on the sweet compound injected. The Ca^2+ changes were expressed as fractional changes in fluorescent light intensity: ΔF/F = (F − F0)/F0, where F was the fluorescent light intensity at each point, and F0 was the value of emitted fluorescent light prior to stimulus application. To calculate dose–response relationships, the changes in fluorescence upon stimulus application were averaged, mock-subtracted and baseline-corrected. The dose–response data obtained were adjusted using a 4-parameter logistic equation. The half-maximal effective concentrations (EC50 values) and maximal signal amplitudes were calculated using SigmaPlot software (version 15.0) (Systat Software; San Jose, CA, USA).
For in vitro calcium mobilisation assay performed on hTAS1R2-SNPs, hTAS1R3-SNPs and mTAS1R3-I60T, 6 to 7 concentrations were tested for each sweet compound, plus buffer alone. All concentration–receptor combinations were measured in duplicate, and each experiment was repeated at least 4 times (8 wells/concentration). Results were expressed for each concentration as ΔF/F mean ± SEM and represented as dose–response curves.
A general note: Calcium assays in cells follow changes in intracellular calcium, usually with a dye or a luminescent sensor.

What is called EC50 is the concentration at which the effect is half-maximal. For the molecule `OC[C@H]1O[C@H](O[C@]2(CCl)O[C@H](CCl)[C@@H](O)[C@@H]2O)[C@H](O)[C@@H](O)[C@H]1Cl` [Sucralose], the EC50 came to 96 ± 6 µM, the “R1 = Variant EC50/WT EC50” value is 1.1 and the “Max ΔF/F0” value came to 0.64 ± 0.02.
Regarding `C[C@H](CC[C@@H](O[C@@H]1O[C@H](CO[C@@H]2O[C@H](CO)[C@@H](O)[C@H](O)[C@H]2O)[C@@H](O)[C@H](O)[C@H]1O[C@@H]1O[C@H](CO)[C@@H](O)[C@H](O)[C@H]1O)C(C)(C)O)[C@H]1CC[C@@]2(C)[C@@H]3CC=C4[C@@H](CC[C@H](O[C@@H]5O[C@H](CO[C@@H]6O[C@H](CO)[C@@H](O)[C@H](O)[C@H]6O)[C@@H](O)[C@H](O)[C@H]5O)C4(C)C)[C@]3(C)[C@H](O)C[C@]12C` [Mogroside V, mogroside V], the EC50 was 21.2 ± 2.1 µM, the “R1 = Variant EC50/WT EC50” value is given as 1.2 and the “Max ΔF/F0” value is 1.32 ± 0.05.
In the case of `COC(=O)[C@H](Cc1ccccc1)NC(=O)[C@H](CC(=O)O)NCCC(C)(C)C` [Neotame], the concentration for a half-maximal effect (EC50) worked out at 0.99 ± 0.05 µM, the “R1 = Variant EC50/WT EC50” value is recorded as 1.2 and the “Max ΔF/F0” value is given as 0.63 ± 0.01.
“brazzein (QDKCKKVYENYPVSKCQLANQCNYDCKLDKHARSGECFYDEKRNLQCICDYCEY; ends and bridges not checked; cysteine pairing not given here; UniProt P56552 1-54, looked up) [sweet-tasting protein obtained by recombinant production using the yeast Pichia pastoris]”: the “R1 = Variant EC50/WT EC50” value worked out at 1.4 and the “Max ΔF/F0” value is 1.18 ± 0.02.
On to `C=C(C)[C@@H]1CC=C(/C=N/O)CC1` [Perillartine, perillartine], for which the EC50 stood at 22.9 ± 0.6 µM, the “R1 = Variant EC50/WT EC50” value was 1.3 and the “Max ΔF/F0” value came out at 1.30 ± 0.01.
Take `CC1=CC(=O)NS(=O)(=O)O1` [Acesulfame K, acesulfame K]: the EC50 was found to be 438 ± 25 µM, the “R1 = Variant EC50/WT EC50” value turned out to be 0.6 and the “Max ΔF/F0” value came out at 0.28 ± 0.01.
As for `C=C1C[C@@]23CC[C@H]4[C@@](C)(CCC[C@@]4(C)C(=O)O[C@@H]4O[C@H](CO)[C@@H](O)[C@H](O[C@@H]5O[C@H](CO)[C@@H](O)[C@H](O)[C@H]5O)[C@H]4O[C@@H]4O[C@H](CO)[C@@H](O)[C@H](O)[C@H]4O)[C@@H]2CC[C@]1(O[C@@H]1O[C@H](CO)[C@@H](O)[C@H](O[C@@H]2O[C@H](CO)[C@@H](O)[C@H](O)[C@H]2O)[C@H]1O[C@@H]1O[C@H](CO)[C@@H](O)[C@H](O)[C@H]1O)C3` [Rebaudioside M, rebaudioside M], the half-maximal effective concentration (EC50) is 23.2 ± 1.1 µM, the “R1 = Variant EC50/WT EC50” value is reported as 1.4 and the “Max ΔF/F0” value was 1.14 ± 0.02.
As for `O=S(=O)(O)NC1CCCCC1` [Cyclamate, cyclamate], the EC50 is 1770 ± 44 µM.
For the molecule `COc1ccc(CCC(=O)c2c(O)cc(O[C@@H]3O[C@H](CO)[C@@H](O)[C@H](O)[C@H]3O[C@@H]3O[C@@H](C)[C@H](O)[C@@H](O)[C@H]3O)cc2O)cc1O` [NHDC, neohesperidin dihydrochalcone], the concentration for a half-maximal effect (EC50) came out at 90.7 ± 8.1 µM, the “R1 = Variant EC50/WT EC50” value came out at 1.2 and the “Max ΔF/F0” value stood at 0.84 ± 0.03.
thaumatin: the “R1 = Variant EC50/WT EC50” value was determined as 0.8 and the “Max ΔF/F0” value is reported as 0.6 ± 0.01.

B1: thaumatin (protein)
chain: ATFEIVNRCSYTVWAAASKGDAALDAGGRQLNSGESWTINVEPGTKGGKIWARTDCYFDDSGSGICKTGDCGGLLRCKRFGRPPTTLAEFSLNQYGKDYIDISNIKGFNVPMDFSPTTRGCRGVRCAADIVGQCPAKLKAPGGGCNDACTVFQTSEYCCTTGKCGPTEYSRFFKRLCPDAFSYVLDKPTTVTCPGSSNYRVTFCPTA
modifications: Eight disulfides
notes: sweet-tasting plant protein, E957
As for B1, the EC50 was determined as 6.1 ± 0.2 µM.
